Experimental data: patent US4327097A, “Novel penicillins” (Toyama Chemical Co., Ltd., priority 1974, dated 1982)
Converted amounts (≈) assume the structure as drawn.

Legend:
[1] = test system: β-lactamase, Pseudomonas aeruginosa GN 238; assay: Resistant activity against β-lactamase, iodometric assay; assay type: biochemical; conditions: β-lactamase from Pseudomonas aeruginosa GN 238; Potassium Penicillin G = 100
Method: (3) Resistant activity against β-lactamase, Pseudomonas aerugionsa GN 238:
The resistant activity of each compound against β-lactamase was measured in the manner described below.
β-Lactamase was prepared from Pseudomonas aeruginosa GN 238. This microorganism was cultured in 100 ml of a medium containing 2 g of yeast extract, 10 g of polypeptone, 2 g of glucose, 7 g of disodium hydrogen phosphate, 2 g of potassium dihydrogen phosphate, 1.2 g of ammonium sulfate and 0.4 g of magnesium sulfate, per liter, in a 500-ml Erlenmeyer flask for 6 hrs. at 37° C. with shaking. The resulting cells were collected by centrifugation (5,000 r.p.m.×10 min.), washed three times with 0.1 M phosphate buffer (pH 7.0). Subsequently, the cells were subjected to sonication (20 KHz, 20 min.) and then centrifuged at 15,000 r.p.m. for 60 min. By using the supernatant of enzyme fluid, the resistance of each compound against β-lactamase was determined by the iodometric assay method. Each numeral shown in Table 7 is a relative activity value calculated by assuming as 100 the activity of the control Potassium Penicillin G.

[2] = test system: Escherichia coli; assay: MIC against clinical isolates; assay type: cell-based; conditions: Table 5-2, clinical isolate; unit assumed
[3] = test system: Shigella sonnei; assay: MIC against clinical isolates; assay type: cell-based; conditions: Table 5-5, clinical isolate; unit assumed
Method: (§1) The minimum inhibitory concentration (MIC) was determined by the plate method disclosed in "Chemotherapy" (Japan), Vol. 16, (1968), pages 98-99. The culture medium used was a Heart infusion agar (pH 7.4). The number of the cells per plate used in the inoculum was 10^4 (10^6 cells/ml).
(§2) MIC was determined in the same manner as in the preceding paragraph (1).

[4] = test system: Shigella flexneri; assay: MIC against clinical isolates; assay type: cell-based; conditions: Table 5-5, clinical isolate; unit assumed
Method: as §1, §2

[5] = test system: Proteus morganii; assay: MIC against clinical isolates; assay type: cell-based; conditions: Table 5-6, clinical isolate; unit assumed
[6] = test system: Proteus mirabilis; assay: MIC against clinical isolates; assay type: cell-based; conditions: Table 5-6, clinical isolate; unit assumed
[7] = test system: Staphylococcus aureus; assay: MIC against clinical isolates; assay type: cell-based; conditions: Table 5-1, clinical isolate; unit assumed
[8] = test system: Pseudomonas aeruginosa; assay: MIC against clinical isolates; assay type: cell-based; conditions: Table 5-3, clinical isolate; unit assumed
[9] = target: T1, β-lactamase, Proteus vulgaris GN 76 (Proteus vulgaris, UniProt P52664); assay: Resistant activity against β-lactamase, iodometric assay; assay type: biochemical; conditions: control Cephalorizine = 100
T1 construct: By using the supernatant of enzyme fluid; endogenous in cells; host or cells: Proteus vulgaris GN 76 (penicillin G-induced cells, sonicated, 15,000 r.p.m. supernatant)
T1 sequence (P52664 30-300): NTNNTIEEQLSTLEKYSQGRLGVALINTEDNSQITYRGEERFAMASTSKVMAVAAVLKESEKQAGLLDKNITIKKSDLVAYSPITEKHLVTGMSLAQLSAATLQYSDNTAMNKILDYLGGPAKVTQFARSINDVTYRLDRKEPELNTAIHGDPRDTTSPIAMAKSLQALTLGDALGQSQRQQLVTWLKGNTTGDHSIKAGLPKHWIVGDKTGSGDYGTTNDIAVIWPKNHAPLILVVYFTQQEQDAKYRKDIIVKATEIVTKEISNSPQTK
Method: (§3) (4) Resistant activity of each cephalosporin compound against β-lactamase, Proteus vulgaris GN 76 and Escherichia freundii GN 346:
(§4) The resistant activity of each cephalosporin compound against β-lactamase was measured in the manner described below.
(§5) β-lactamase was prepared from Proteus vulgaris GN 76 and Escherichia freundii GN 346. 10 ml of an overnight culture in Heart Infusion broth was diluted with 100 ml of a medium containing 2 g of yeast extract, 10 g of polypeptone, 2 g of glucose, 7 g of disodium hydrogen phosphate, 2 g of potassium dihydrogen phosphate, 1.2 g of ammonium sulfate and 0.4 g of magnesium sulfate, per liter, and incubated with shaking at 37° C. After incubation of 2 hrs, Penicillin G (50 μg/ml) was added as the inducer, and further incubated for 2 hrs. The resulting cells were collected by centrifugation (5,000 r.p.m.×10 min.) and washed two times with 0.1 M phosphate buffer (pH 7.0). Subsequently, the cells were subjected to sonication (20 KHz, 5 min.) and then centrifuged at 15,000 r.p.m. for 60 min. By using the supernatant of enzyme fluid, the stability of each compound against β-lactamase was determined by the iodometric assay method. Each numeral shown in Table 7-2 is a relative activity value calculated by assuming as 100 the activity of the control Cephalorizine.

[10] = target: β-lactamase, Escherichia freundii GN 346 (Citrobacter freundii, UniProt Q46041); assay: as above; assay type: biochemical; conditions: control Cephalorizine = 100
Chain of β-lactamase, Escherichia freundii GN 346 (Q46041 entry or part of it): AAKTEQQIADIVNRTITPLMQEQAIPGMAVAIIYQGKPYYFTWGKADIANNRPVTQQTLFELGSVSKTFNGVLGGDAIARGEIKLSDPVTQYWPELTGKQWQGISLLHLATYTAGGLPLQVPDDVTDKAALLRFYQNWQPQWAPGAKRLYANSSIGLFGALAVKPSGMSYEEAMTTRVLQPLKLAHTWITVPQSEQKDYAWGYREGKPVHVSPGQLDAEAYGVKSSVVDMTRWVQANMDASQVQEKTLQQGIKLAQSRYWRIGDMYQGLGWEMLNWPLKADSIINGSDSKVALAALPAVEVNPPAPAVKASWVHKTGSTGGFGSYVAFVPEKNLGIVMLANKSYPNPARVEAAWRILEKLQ
Method: as §3, §4, §5

[11] = test system: Klebsiella pneumoniae; assay: MIC, plate method, standard strains; assay type: cell-based; conditions: unit assumed
Method: as §1

[12] = test system: Proteus vulgaris 3027; assay: MIC, plate method, standard strains; assay type: cell-based; conditions: unit assumed
Method: as §1

[13] = test system: Escherichia coli NIHJ; assay: MIC, plate method, standard strains; assay type: cell-based; conditions: unit assumed; for MIC Escherichia coli NIHJ: Table 4, standard strain
Method: as §1

[14] = test system: Pseudomonas aeruginosa I.F.O.; assay: MIC, plate method, standard strains; assay type: cell-based; conditions: unit assumed; for MIC Pseudomonas aeruginosa I.F.O.: Table 4, standard strain
Method: as §1

[15] = test system: Staphylococcus aureus 209p; assay: MIC, plate method, standard strains; assay type: cell-based; conditions: unit assumed
Method: as §1

**Q.** How did the “Relative activity (%), resistant activity against β-lactamase” value [1] turn out when `CC1(C)S[C@@H]2[C@H](NC(=O)Cc3ccccc3)C(=O)N2[C@H]1C(=O)O` [Potassium Penicillin G, reference compound] was run?
**A.** Its value is 100%.

**Q.** Which results are given for `CC1(C)S[C@@H]2[C@H](NC(=O)[C@H](N)c3ccccc3)C(=O)N2[C@H]1C(=O)O` [Sodium Ampicillin, reference compound]?
**A.** MIC Escherichia coli GN 3435 [2]: 3.13 µg/mL; MIC Escherichia coli GN 3452 [2]: 6.25 µg/mL; MIC Escherichia coli GN 3481 [2]: 6.25 µg/mL; MIC Escherichia coli K-1 [2]: 6.25 µg/mL; MIC Escherichia coli K-2 [2]: 6.25 µg/mL; MIC Shigella sonnei JS 11232 [3]: > 200 µg/mL; MIC Shigella sonnei JS 11755 [3]: 6.25 µg/mL; MIC Shigella flexneri JS 11839 [4]: 1.57 µg/mL; MIC Proteus morganii [5]: < 1.57 µg/mL; MIC Proteus mirabilis [6]: < 1.57 µg/mL; MIC Staphylococcus aureus MS 8588 [7]: 6.25 µg/mL; MIC Staphylococcus aureus MS 8596 [7]: 1.56 µg/mL; MIC Staphylococcus aureus MS 8684 [7]: 1.56 µg/mL; MIC Staphylococcus aureus MS 8713 [7]: 3.13 µg/mL

**Q.** Which results are given for `CC1(C)S[C@@H]2[C@H](NC(=O)C(C(=O)O)c3ccccc3)C(=O)N2[C@H]1C(=O)O` (stereo partly drawn) [Sodium Carbenicillin, reference compound]?
**A.** Relative activity (%), resistant activity against β-lactamase [1]: 116%; MIC Escherichia coli GN 3435 [2]: 6.25 µg/mL; MIC Escherichia coli GN 3452 [2]: 12.5 µg/mL; MIC Escherichia coli GN 3481 [2]: 6.25 µg/mL; MIC Escherichia coli K-1 [2]: 6.25 µg/mL; MIC Escherichia coli K-2 [2]: 6.25 µg/mL; MIC Escherichia coli K-4 [2]: 12.5 µg/mL; MIC Shigella sonnei JS 11232 [3]: > 200 µg/mL; MIC Shigella sonnei JS 11755 [3]: 12.5 µg/mL; MIC Shigella flexneri JS 11215 [4]: > 200 µg/mL; MIC Shigella flexneri JS 11839 [4]: 12.5 µg/mL; MIC Pseudomonas aeruginosa GN 383 [8]: 50 µg/mL; MIC Staphylococcus aureus F-1 [7]: 6.25 µg/mL; MIC Staphylococcus aureus F-2 [7]: 3.13 µg/mL; MIC Staphylococcus aureus F-3 [7]: 3.13 µg/mL; MIC Staphylococcus aureus F-4 [7]: 12.5 µg/mL; MIC Staphylococcus aureus MS 8588 [7]: 6.25 µg/mL; MIC Staphylococcus aureus MS 8596 [7]: 6.25 µg/mL; MIC Staphylococcus aureus MS 8684 [7]: 6.25 µg/mL; MIC Staphylococcus aureus MS 8713 [7]: 6.25 µg/mL

**Q.** `CC1=C(C(=O)O)N2C(=O)[C@@H](NC(=O)[C@H](N)c3ccccc3)[C@H]2SC1` [Sodium Cephalexin, reference compound] was tested. Which “Relative activity (%) against β-lactamase, Pr. vulgaris GN 76” value [9] did it give?
**A.** The value was 150%.

**Q.** And the “Relative activity (%) against β-lactamase, E. freundii GN 346” value [10]?
**A.** Its value is 29%.

**Q.** For `CC1(C)S[C@@H]2[C@H](NC(=O)C(c3ccccc3)S(=O)(=O)O)C(=O)N2[C@H]1C(=O)O` (stereo partly drawn) [Sodium Sulbenicillin, reference compound], which “Relative activity (%), resistant activity against β-lactamase” value [1] is on record?
**A.** Its value is 50%.

**Q.** What about the MIC Escherichia coli GN 3435 [2] of the same compound?
**A.** Its MIC Escherichia coli GN 3435 is 6.25 µg/mL.

**Q.** And the MIC Escherichia coli GN 3452 [2]?
**A.** The MIC Escherichia coli GN 3452 was 12.5 µg/mL.

**Q.** What about the MIC Escherichia coli GN 3481 [2] of the same compound?
**A.** The MIC Escherichia coli GN 3481 was 12.5 µg/mL.

**Q.** And the MIC Escherichia coli K-1 [2]?
**A.** The MIC Escherichia coli K-1 was 6.25 µg/mL.

**Q.** What about the MIC Escherichia coli K-2 [2] of the same compound?
**A.** Its MIC Escherichia coli K-2 is 12.5 µg/mL.

**Q.** What about the MIC Escherichia coli K-4 [2] of the same compound?
**A.** Its MIC Escherichia coli K-4 is 6.25 µg/mL.

**Q.** And the MIC Shigella sonnei JS 11232 [3]?
**A.** The MIC Shigella sonnei JS 11232 was > 200 µg/mL.

**Q.** What about the MIC Shigella sonnei JS 11755 [3] of the same compound?
**A.** Its MIC Shigella sonnei JS 11755 is > 200 µg/mL.

**Q.** And the MIC Shigella flexneri JS 11215 [4]?
**A.** Its MIC Shigella flexneri JS 11215 is > 200 µg/mL.

**Q.** What about the MIC Shigella flexneri JS 11839 [4] of the same compound?
**A.** The MIC Shigella flexneri JS 11839 was 12.5 µg/mL.

**Q.** And the MIC Staphylococcus aureus F-1 [7]?
**A.** Its MIC Staphylococcus aureus F-1 is 6.25 µg/mL.

**Q.** And the MIC Staphylococcus aureus F-3 [7]?
**A.** The MIC Staphylococcus aureus F-3 was 6.25 µg/mL.

**Q.** What about the MIC Staphylococcus aureus F-4 [7] of the same compound?
**A.** The MIC Staphylococcus aureus F-4 was 6.25 µg/mL.

**Q.** How did the MIC Klebsiella pneumoniae ([11]; Table 3, standard strain) turn out when `CC1(C)SC2C(NC(=O)C(NC(=O)N3CC(=O)NC(=O)C3)c3ccccc3)C(=O)N2C1C(=O)O` (stereo not drawn) [compound 59] was run?
**A.** Its MIC Klebsiella pneumoniae is 200 µg/mL (≈ 409 µM).

**Q.** What about the MIC Proteus vulgaris 3027 ([12]; Table 3, standard strain) of the same compound?
**A.** The MIC Proteus vulgaris 3027 was 3.13 µg/mL (≈ 6.39 µM).

**Q.** What about the MIC Esche--richin coil NIHJ ([13]; Table 3, standard strain) of the same compound?
**A.** The MIC Esche--richin coil NIHJ was < 1.57 µg/mL.

**Q.** And the MIC Pseudomonas aeruginosa I.F.C ([14]; Table 3, standard strain)?
**A.** The MIC Pseudomonas aeruginosa I.F.C was 25 µg/mL (≈ 51.1 µM).

**Q.** What about the MIC Staphylococcus aureus 209p ([15]; Table 3, standard strain, Heart infusion agar pH 7.4) of the same compound?
**A.** Its MIC Staphylococcus aureus 209p is < 1.57 µg/mL.

**Q.** Which MIC Klebsiella pneumoniae ([11]; Table 4, standard strain) does the source give for `CC(=O)OCC1=C(C(=O)O)N2C(=O)[C@@H](NC(=O)Cc3cccs3)[C@H]2SC1` [drawing 248, reference compound] here?
**A.** Its MIC Klebsiella pneumoniae is < 1.57 µg/mL.

**Q.** And the MIC Proteus vulgaris 3027 ([12]; Table 4, standard strain)?
**A.** Its MIC Proteus vulgaris 3027 is 100 µg/mL (≈ 252 µM).

**Q.** What about the MIC Escherichia coli NIHJ [13] of the same compound?
**A.** The MIC Escherichia coli NIHJ was < 1.57 µg/mL.

**Q.** And the MIC Pseudomonas aeruginosa I.F.O. [14]?
**A.** Its MIC Pseudomonas aeruginosa I.F.O. is > 200 µg/mL.

**Q.** What about the MIC Staphylococcus aureus 209p ([15]; Table 4, standard strain) of the same compound?
**A.** Its MIC Staphylococcus aureus 209p is < 1.57 µg/mL.

**Q.** `O=C(Cc1cccs1)N[C@@H]1C(=O)N2C(C(=O)[O-])=C(C[n+]3ccccc3)CS[C@H]12` [drawing 250, reference compound] was tested. Which MIC Klebsiella pneumoniae ([11]; Table 4, standard strain) did it give?
**A.** Its MIC Klebsiella pneumoniae is 3.13 µg/mL (≈ 7.53 µM).

**Q.** And the MIC Proteus vulgaris 3027 ([12]; Table 4, standard strain)?
**A.** Its MIC Proteus vulgaris 3027 is 200 µg/mL (≈ 481 µM).

**Q.** What about the MIC Escherichia coli NIHJ [13] of the same compound?
**A.** The MIC Escherichia coli NIHJ was > 3.13 µg/mL.

**Q.** What about the MIC Pseudomonas aeruginosa I.F.O. [14] of the same compound?
**A.** Its MIC Pseudomonas aeruginosa I.F.O. is 200 µg/mL (≈ 481 µM).

**Q.** What about the MIC Staphylococcus aureus 209p ([15]; Table 4, standard strain) of the same compound?
**A.** The MIC Staphylococcus aureus 209p was < 1.57 µg/mL.
